Results from ChEMBL document CHEMBL1201862, “PubChem BioAssay data set” (2004).
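A five-concentration, 48-hour dose response in 96-well plates underlies each endpoint, interpolated linearly between surrounding concentrations. GI50 is the concentration that inhibits growth by half.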 Activity calls are given as the source filed them. No stated cut-off is given here; in the data, active = GI50 up to about 1.1 µM and inactive = higher.

How the values were obtained:
Experiment in all cases: DTP human tumour cell line panel, 48 h
U-251 = test system: U-251
A549 = test system: A549
DU-145 = test system: DU-145
NCI-H460 = test system: NCI-H460
OVCAR-8 = test system: OVCAR-8
HL-60 = test system: HL-60
HT-29 = test system: HT-29
Malme-3M = test system: Malme-3M
MDA-MB-231 = test system: MDA-MB-231
MDA-N = test system: MDA-N
UACC-62 = test system: UACC-62
T47D = test system: T47D
SK-MEL-28 = test system: SK-MEL-28
LOX IMVI = test system: LOX IMVI
PC-3 = test system: PC-3
OVCAR-3 = test system: OVCAR-3
SNB-19 = test system: SNB-19
NCI/ADR-RES = test system: NCI/ADR-RES
EKVX = test system: EKVX
RXF 393 = test system: RXF 393
RPMI-8226 = test system: RPMI-8226
ACHN = test system: ACHN
MOLT-4 = test system: MOLT-4
OVCAR-5 = test system: OVCAR-5
HCC 2998 = test system: HCC 2998
M14 = test system: M14
K562 = test system: K562
NCI-H226 = test system: NCI-H226
NCI-H522 = test system: NCI-H522
HCT-15 = test system: HCT-15
SNB-75 = test system: SNB-75
CCRF-CEM = test system: CCRF-CEM
HOP-62 = test system: HOP-62
COLO 205 = test system: COLO 205
IGROV-1 = test system: IGROV-1
TK-10 = test system: TK-10
UO-31 = test system: UO-31
SN12C = test system: SN12C
Hs-578T = test system: Hs-578T
SF-268 = test system: SF-268
KM12 = test system: KM12
HCT-116 = test system: HCT-116
SF-295 = test system: SF-295
OVCAR-4 = test system: OVCAR-4
SW-620 = test system: SW-620
786-0 = test system: 786-0
SF-539 = test system: SF-539
HOP-92 = test system: HOP-92
BT-549 = test system: BT-549
SK-OV-3 = test system: SK-OV-3
MCF7 = test system: MCF7
UACC-257 = test system: UACC-257
MDA-MB-435 = test system: MDA-MB-435
SR = test system: SR
SK-MEL-5 = test system: SK-MEL-5
NCI-H23 = test system: NCI-H23
A498 = test system: A498
SK-MEL-2 = test system: SK-MEL-2
CAKI-1 = test system: CAKI-1

Oc1ccccc1C1C=C(c2ccccc2)NC(N2CCCCC2)=C1c1nc2ccccc2[nH]1 (stereo not given)
GI50 (U-251): 15.1 µM (inactive) | GI50 (A549): 15.7 µM (inactive) | GI50 (DU-145): 24.2 µM (inactive) | GI50 (NCI-H460): 14.3 µM (inactive) | GI50 (OVCAR-8): 15.9 µM (inactive) | GI50 (HL-60): 14.2 µM (inactive) | GI50 (HT-29): 15.2 µM (inactive) | GI50 (Malme-3M): 15.8 µM (inactive) | GI50 (MDA-MB-231): 11.9 µM (inactive) | GI50 (MDA-N): 13.5 µM (inactive) | GI50 (UACC-62): 15.8 µM (inactive) | GI50 (T47D): 18.9 µM (inactive) | GI50 (SK-MEL-28): 15.9 µM (inactive) | GI50 (LOX IMVI): 17 µM (inactive) | GI50 (PC-3): 11.8 µM (inactive) | GI50 (OVCAR-3): 14.6 µM (inactive) | GI50 (SNB-19): 15 µM (inactive) | GI50 (NCI/ADR-RES): 15.8 µM (inactive) | GI50 (EKVX): 6.11 µM (inactive) | GI50 (RXF 393): 11.4 µM (inactive) | GI50 (RPMI-8226): 9.57 µM (inactive) | GI50 (ACHN): 18.2 µM (inactive) | GI50 (MOLT-4): 13.7 µM (inactive) | GI50 (OVCAR-5): 17.9 µM (inactive) | GI50 (HCC 2998): 3.08 µM (inactive) | GI50 (M14): 13 µM (inactive) | GI50 (K562): 8.05 µM (inactive) | GI50 (NCI-H226): 16.7 µM (inactive) | GI50 (NCI-H522): 14 µM (inactive) | GI50 (HCT-15): 18.2 µM | GI50 (SNB-75): 4.57 µM (inactive) | GI50 (CCRF-CEM): 17.1 µM (inactive) | GI50 (HOP-62): 14.1 µM (inactive) | GI50 (COLO 205): 2.19 µM (inactive) | GI50 (IGROV-1): 14.6 µM (inactive) | GI50 (TK-10): 19.9 µM (inactive) | GI50 (UO-31): 11.1 µM (inactive) | GI50 (SN12C): 16.1 µM (inactive) | GI50 (Hs-578T): 13.4 µM (inactive) | GI50 (SF-268): 13.2 µM (inactive) | GI50 (KM12): 16.6 µM (inactive) | GI50 (HCT-116): 11.7 µM (inactive) | GI50 (SF-295): 15.5 µM (inactive) | GI50 (OVCAR-4): 13.3 µM (inactive) | GI50 (SW-620): 16.3 µM (inactive) | GI50 (786-0): 12.7 µM (inactive) | GI50 (SF-539): 15.9 µM (inactive) | GI50 (HOP-92): 13.7 µM (inactive) | GI50 (BT-549): 15.1 µM (inactive) | GI50 (SK-OV-3): 13.5 µM (inactive) | GI50 (MCF7): 12.1 µM (inactive) | GI50 (UACC-257): 16 µM (inactive) | GI50 (MDA-MB-435): 15.6 µM (inactive) | GI50 (SR): 12.4 µM (inactive) | GI50 (SK-MEL-5): 13.9 µM (inactive) | GI50 (NCI-H23): 15.3 µM (inactive)

COC(=O)[C@@]1(Cc2ccc(OC(C)=O)cc2)Cc2cc3ccccc3n2N1
GI50 (U-251): 30.1 µM (inactive) | GI50 (A549): 47.2 µM (inactive) | GI50 (DU-145): 62.4 µM (inactive) | GI50 (OVCAR-8): 50.8 µM (inactive) | GI50 (HL-60): 20.3 µM (inactive) | GI50 (HT-29): 36 µM (inactive) | GI50 (Malme-3M): 47.5 µM (inactive) | GI50 (MDA-MB-231): 29.2 µM (inactive) | GI50 (MDA-N): 26.5 µM (inactive) | GI50 (UACC-62): 57.4 µM (inactive) | GI50 (T47D): 24.8 µM (inactive) | GI50 (A498): 23.1 µM (inactive) | GI50 (SK-MEL-28): 54.6 µM (inactive) | GI50 (LOX IMVI): 38.6 µM (inactive) | GI50 (PC-3): 30 µM (inactive) | GI50 (OVCAR-3): 69.5 µM (inactive) | GI50 (SNB-19): 93.8 µM (inactive) | GI50 (NCI/ADR-RES): 26.5 µM (inactive) | GI50 (EKVX): 23.8 µM (inactive) | GI50 (RPMI-8226): 26.6 µM (inactive) | GI50 (ACHN): 58.1 µM (inactive) | GI50 (MOLT-4): 26.8 µM (inactive) | GI50 (OVCAR-5): 94.4 µM (inactive) | GI50 (M14): 39.4 µM (inactive) | GI50 (NCI-H226): 63.4 µM (inactive) | GI50 (NCI-H522): 24 µM (inactive) | GI50 (HCT-15): 53.5 µM | GI50 (SK-MEL-2): 18.2 µM (inactive) | GI50 (CCRF-CEM): 26.5 µM (inactive) | GI50 (HOP-62): > 100 µM (inactive) | GI50 (COLO 205): 31.2 µM (inactive) | GI50 (IGROV-1): 55.8 µM (inactive) | GI50 (TK-10): 33.7 µM (inactive) | GI50 (UO-31): 50.7 µM (inactive) | GI50 (SN12C): 29.6 µM (inactive) | GI50 (Hs-578T): 82.8 µM (inactive) | GI50 (SF-268): 60.4 µM (inactive) | GI50 (KM12): 60.7 µM (inactive) | GI50 (HCT-116): 35 µM (inactive) | GI50 (SF-295): 46.8 µM (inactive) | GI50 (CAKI-1): > 100 µM (inactive) | GI50 (OVCAR-4): 75.5 µM (inactive) | GI50 (SW-620): 29.2 µM (inactive) | GI50 (786-0): 33.7 µM (inactive) | GI50 (SF-539): 58.7 µM (inactive) | GI50 (HOP-92): 75 µM (inactive) | GI50 (BT-549): 28.2 µM (inactive) | GI50 (SK-OV-3): > 100 µM (inactive) | GI50 (MCF7): 29.9 µM (inactive) | GI50 (UACC-257): 17.3 µM (inactive) | GI50 (MDA-MB-435): 43.6 µM (inactive) | GI50 (SR): 13.5 µM (inactive) | GI50 (SK-MEL-5): 18.2 µM (inactive) | GI50 (NCI-H23): 25.3 µM (inactive)
